According to the NIST ThermoML archive (doi:10.1021/je5010214):
Numbers after ± are expanded uncertainties.

Conditions: Liquid, Vibrating tube method

CCCCO [butan-1-ol]
Conditions	mass density [kg/m3]
303.15 K, 21920 kPa	817.555 ± 0.83
303.15 K, 24992 kPa	819.44 ± 0.84
303.15 K, 31958 kPa	823.711 ± 0.85
303.15 K, 32862 kPa	824.267 ± 0.85
303.15 K, 33112 kPa	824.372 ± 0.85
303.15 K, 34081 kPa	824.9 ± 0.85
303.15 K, 34980 kPa	825.355 ± 0.86
303.15 K, 37951 kPa	827.164 ± 0.86
303.15 K, 39904 kPa	828.27 ± 0.87
303.15 K, 42014 kPa	829.398 ± 0.87
303.15 K, 44896 kPa	831.035 ± 0.88
303.15 K, 47951 kPa	832.781 ± 0.88
303.15 K, 50065 kPa	833.864 ± 0.89
303.15 K, 52073 kPa	834.942 ± 0.89
303.15 K, 55075 kPa	836.525 ± 0.9
303.15 K, 57989 kPa	838.099 ± 0.9
303.15 K, 59979 kPa	839.13 ± 0.91
303.15 K, 62052 kPa	840.165 ± 0.91
303.15 K, 64988 kPa	841.599 ± 0.92
303.15 K, 66030 kPa	842.119 ± 0.92
303.16 K, 100 kPa	802.125 ± 0.81
303.16 K, 2964.9 kPa	804.3 ± 0.81
303.16 K, 7045.6 kPa	807.335 ± 0.81
303.16 K, 8858.2 kPa	808.638 ± 0.82
303.16 K, 10014 kPa	809.449 ± 0.82
303.16 K, 18021 kPa	814.973 ± 0.83
303.16 K, 27933 kPa	821.256 ± 0.84
303.16 K, 29990 kPa	822.537 ± 0.85
308.15 K, 274.3 kPa	798.317 ± 0.81
308.15 K, 494.1 kPa	798.504 ± 0.81
308.15 K, 803.3 kPa	798.75 ± 0.81
308.15 K, 1039.5 kPa	798.954 ± 0.81
308.15 K, 1916.7 kPa	799.642 ± 0.81
308.15 K, 2980.7 kPa	800.489 ± 0.81
308.15 K, 4990.2 kPa	802.048 ± 0.81
308.15 K, 6964.9 kPa	803.548 ± 0.81
308.15 K, 8864.3 kPa	804.962 ± 0.82
308.15 K, 9863.1 kPa	805.692 ± 0.82
308.15 K, 12009 kPa	807.267 ± 0.82
308.15 K, 17850 kPa	811.315 ± 0.83
308.15 K, 19930 kPa	812.759 ± 0.83
308.15 K, 21988 kPa	814.131 ± 0.83
308.15 K, 25012 kPa	816.144 ± 0.84
308.15 K, 27955 kPa	817.999 ± 0.85
308.15 K, 29906 kPa	819.191 ± 0.85
308.15 K, 31929 kPa	820.41 ± 0.85
308.15 K, 32886 kPa	820.911 ± 0.85
308.15 K, 32941 kPa	821.059 ± 0.85
308.15 K, 34011 kPa	821.636 ± 0.86
308.15 K, 37971 kPa	823.987 ± 0.86
308.15 K, 40011 kPa	825.154 ± 0.87
308.15 K, 41998 kPa	826.392 ± 0.87
308.15 K, 45017 kPa	828.081 ± 0.88
308.15 K, 48033 kPa	829.748 ± 0.89
308.15 K, 50044 kPa	830.856 ± 0.89
308.15 K, 51977 kPa	831.933 ± 0.89
308.15 K, 54982 kPa	833.542 ± 0.9
308.15 K, 58009 kPa	835.036 ± 0.91
308.15 K, 60030 kPa	836.098 ± 0.91
308.15 K, 61985 kPa	837.136 ± 0.92
308.15 K, 64981 kPa	838.691 ± 0.92
308.16 K, 85.2 kPa	798.155 ± 0.81
308.16 K, 15069 kPa	809.4 ± 0.82
308.16 K, 34949 kPa	822.224 ± 0.86
308.16 K, 66088 kPa	839.237 ± 0.92
313.15 K, 103.1 kPa	794.254 ± 0.81
313.15 K, 316 kPa	794.433 ± 0.81
313.15 K, 569.6 kPa	794.643 ± 0.81
313.15 K, 1088.8 kPa	795.074 ± 0.81
313.15 K, 2109.7 kPa	795.902 ± 0.81
313.15 K, 3137 kPa	796.707 ± 0.81
313.15 K, 5111.8 kPa	798.292 ± 0.81
313.15 K, 6921.8 kPa	799.704 ± 0.81
313.15 K, 9210.7 kPa	801.445 ± 0.82
313.15 K, 10209 kPa	802.164 ± 0.82
313.15 K, 12020 kPa	803.525 ± 0.82
313.15 K, 15059 kPa	805.716 ± 0.82
313.15 K, 17921 kPa	807.72 ± 0.83
313.15 K, 19932 kPa	809.082 ± 0.83
313.15 K, 22058 kPa	810.55 ± 0.84
313.15 K, 24862 kPa	812.41 ± 0.84
313.15 K, 27869 kPa	814.438 ± 0.85
313.15 K, 29957 kPa	815.731 ± 0.85
313.15 K, 32107 kPa	817.091 ± 0.85
313.15 K, 32980 kPa	817.674 ± 0.86
313.15 K, 33002 kPa	817.783 ± 0.86
313.15 K, 33981 kPa	818.214 ± 0.86
313.15 K, 35045 kPa	818.819 ± 0.86
313.15 K, 38127 kPa	820.76 ± 0.87
313.15 K, 41978 kPa	822.973 ± 0.88
313.15 K, 44946 kPa	824.676 ± 0.88
313.15 K, 47880 kPa	826.39 ± 0.89
313.15 K, 52097 kPa	828.677 ± 0.9
313.15 K, 54924 kPa	830.321 ± 0.9
313.15 K, 58082 kPa	831.994 ± 0.91
313.15 K, 59932 kPa	832.96 ± 0.91
313.15 K, 62004 kPa	834.048 ± 0.92
313.15 K, 64954 kPa	835.652 ± 0.93
313.15 K, 66113 kPa	836.222 ± 0.93
313.16 K, 860.7 kPa	794.888 ± 0.81
313.16 K, 39997 kPa	821.817 ± 0.87
313.16 K, 50021 kPa	827.556 ± 0.89
318.15 K, 72.7 kPa	790.456 ± 0.81
318.15 K, 150.1 kPa	790.516 ± 0.81
318.15 K, 336.3 kPa	790.675 ± 0.81
318.15 K, 1105.7 kPa	791.334 ± 0.81
318.15 K, 1929.1 kPa	792.026 ± 0.81
318.15 K, 2933.2 kPa	792.866 ± 0.81
318.15 K, 8989 kPa	797.678 ± 0.82
318.15 K, 10075 kPa	798.523 ± 0.82
318.15 K, 11896 kPa	799.896 ± 0.82
318.15 K, 18102 kPa	804.461 ± 0.83
318.15 K, 19985 kPa	805.78 ± 0.83
318.15 K, 22094 kPa	807.257 ± 0.84
318.15 K, 29998 kPa	812.541 ± 0.85
318.15 K, 33016 kPa	814.458 ± 0.86
318.15 K, 37838 kPa	817.415 ± 0.87
318.15 K, 40093 kPa	818.817 ± 0.87
318.15 K, 44884 kPa	821.648 ± 0.88
318.15 K, 47944 kPa	823.402 ± 0.89
318.15 K, 54944 kPa	827.433 ± 0.91
318.15 K, 57972 kPa	829.016 ± 0.91
318.15 K, 59923 kPa	830.12 ± 0.92
318.15 K, 65022 kPa	832.785 ± 0.93
318.15 K, 66028 kPa	833.327 ± 0.93
318.16 K, 590.9 kPa	790.894 ± 0.81
318.16 K, 891 kPa	791.16 ± 0.81
318.16 K, 5020.8 kPa	794.556 ± 0.81
318.16 K, 6926.7 kPa	796.098 ± 0.81
318.16 K, 14800 kPa	802.072 ± 0.83
318.16 K, 24873 kPa	809.191 ± 0.84
318.16 K, 27909 kPa	811.139 ± 0.85
318.16 K, 31957 kPa	813.824 ± 0.86
318.16 K, 34110 kPa	815.009 ± 0.86
318.16 K, 35048 kPa	815.63 ± 0.86
318.16 K, 41996 kPa	819.89 ± 0.88
318.16 K, 49950 kPa	824.565 ± 0.9
318.16 K, 52037 kPa	825.741 ± 0.9
318.16 K, 61930 kPa	831.241 ± 0.92
323.15 K, 95 kPa	786.145 ± 0.81
323.15 K, 296.1 kPa	786.326 ± 0.81
323.15 K, 528.4 kPa	786.535 ± 0.81
323.15 K, 994.2 kPa	786.944 ± 0.81
323.15 K, 2006.9 kPa	787.814 ± 0.81
323.15 K, 2966.6 kPa	788.632 ± 0.81
323.15 K, 4996.2 kPa	790.328 ± 0.81
323.15 K, 7042.1 kPa	792.001 ± 0.81
323.15 K, 9029.9 kPa	793.564 ± 0.82
323.15 K, 10090 kPa	794.392 ± 0.82
323.15 K, 11914 kPa	795.8 ± 0.82
323.15 K, 15111 kPa	798.229 ± 0.83
323.15 K, 17981 kPa	800.333 ± 0.83
323.15 K, 20038 kPa	801.815 ± 0.83
323.15 K, 21995 kPa	803.198 ± 0.84
323.15 K, 24993 kPa	805.264 ± 0.84
323.15 K, 32079 kPa	809.955 ± 0.86
